The structures appear in SMILES notation.

The test system of this assay is Hepatitis C replicon. Put plainly: HCV replicon assay (NPT ELISA readout) in Huh-7 replicon-containing cells. The format is cell-based, Hepatitis C virus. Conditions: HCV replicon in Huh-7 cells, three days incubation. As to the method:
Compounds claimed herein are tested for the ability to inhibit viral replication of the Hepatitis C replicon in cultured cells in which the HCV replicon construct has been incorporated. The HCV replicon system was described by Bartenschlager, et. al (Science, 285, pp. 110-113 (1999)). The replicon system is predictive of in vivo anti-HCV activity; compounds that are active in humans uniformly evidence activity in the replicon assay.
In this assay HCV replicon containing cells are treated with different concentrations of the test compound to ascertain the ability of the test compound to suppress replication of the HCV replicon. As a positive control, HCV replicon-containing cells are treated with different concentrations of interferon alpha, a known inhibitor of HCV replication. The replicon assay system includes Neomycin Phosphotransferase (NPT) as a component of the replicon itself in order to detect the transcription of replicon gene products in the host cell. Cells in which the HCV replicon is actively replicating have high levels of NPT; the level of NPT is proportional to HCV replication. […] The NPT level of each sample is measured using a captured ELISA.
A protocol for testing compounds for the ability to inhibit viral replication of the Hepatitis C replicon cultured cells in which the replicon construct has been incorporated, follows.
The HCV replicon contains, 5′-3′, the HCV-IRES, the neomycin phosphotransferase (neo) gene, the IRES of encephalomyocarditis virus, which directs translation of HCV sequences NS3 to NS5B, and the 3′-NTR. The sequence of the HCV replicon has been deposited in GenBank (Accession no. AJ242652).
The replicon is transfected into Huh-7 cells using standard methods such as electroporation.
The equipment and materials include, but are not limited to, Huh-7 HCV replicon-containing cells, maintenance media (DMEM (Dulbecco's modified Eagle media) supplemented with 10% FBS, L-glutamine, non-essential amino acids, penicillin (100 units/ml), streptomycin (100 micrograms/ml), and 500 micrograms/ml of Geneticin (G418), screening media (DMEM supplemented with 10% FBS, L-glutamine, non-essential amino acids, penicillin (100 units/ml) and streptomycin (100 micrograms/ml)), 96 well tissue culture plates (flat bottom), 96 well plates (U bottom for drug dilution), Interferon alpha for positive control, fixation reagent (such as methanol:acetone), primary antibody (rabbit anti-NPTII), secondary antibody: Eu-N1 l, and enhancement solution.
The cells are then seeded onto 96-well plates at a density of 6000-7500 cells/100 microliters/well (6-7.5×10^5 cells/10 ml/plate). The plates are then incubated at 37° C. in a 5% CO2 incubator.
HCV replicon-containing cells are rinsed with once PBS once; 2 mls of trypsin are then added. Cells are incubated at 37° C. in a 5% CO2 incubator for 3-5 minutes. 10 mls of complete medium is added to stop the reaction. Cells are blown gently, put into a 15 ml tube, and spun at 1200 rpm for four minutes. The trypsin/medium solution is removed and 5 mls of medium (500 ml DMEM (high glucose)) from BRL catalog #12430-054; 50 mls 10% FBS, 5% Geneticin G418 (50 mg/ml, BRL catalog #10131-035), 5 ml MEM non-essential amino acids (100×BRL #11140-050) and 5 ml pen-strep (BRL #15140-148) is added. The cells and media are mixed carefully
Cells are plated with screening medium (500 ml DMEM (BRL #21063-029), 50 ml FBS (BRL #10082-147) and 5 ml MEM non-essential amino acid (BRL #11140-050) at 6000-7500 fcells/100 μl/well of 96 well plate (6-7.5×10^5 cells/10 ml/plate). Plates are placed into 37° C. 5% CO2 incubator overnight.
The following morning, drugs (test compounds or interferon alpha) are diluted in 96 well U bottom plates with media or DMSO/media, depending on the final concentration chosen for screening. Generally for 6 concentrations of each test compounds ranging from 10 micromolar to 0.03 micromolar are applied. […]
Background: In antiviral work, replicon cells carry a viral genome segment that copies itself.

One may read the EC50 as the concentration needed to bring the measured effect to its halfway point. A lower EC50 goes with greater potency. Where the note is “Hepatitis C virus, 72 h”, `O=C(N[C@@H]1C[C@H]2C(=O)N[C@]3(C(=O)NS(=O)(=O)C4CC4)C[C@H]3/C=C\CCCCC[C@H](CC(=O)N3CCC(F)(F)CC3)C(=O)N2C1)c1cc(-c2ccccc2)nc2ccccc12` [Compound 79, (2R,6R,13aS, 14aR,16aS,Z)-N-(cyclopropylsulfonyl)-6-(2-(4,4-difluoropiperidin-1-yl)-2-oxoethyl)-5,16-dioxo-2-(2-phenylquinoline-4-carboxamido)-1,2,3,5,6,7,8,9,10,11, 13a,14,14a,15,16,16a-hexadecahydrocyclopropa [e]pyrrolo[1,2-a][1,4] diazacyclopentadecine-14a-carboxamide] returned a 50% effective concentration (EC50) below 1000 nM.

`CCOC(=O)[C@@]12C[C@H]1/C=C\CCCCC[C@H](CC(=O)OC(C)(C)C)C(=O)N1C[C@H](Oc3cc(-c4ccccc4)nc4cc(OC)ccc34)C[C@H]1C(=O)N2` [Compound 46, (2R,6R,13aS,14aR, 16aS,Z)-ethyl 6-(2-tert-butoxy-2-oxoethyl)-2-(7-methoxy-2-phenylquinolin-4-yloxy)-5,16-dioxo-1,2,3,5,6,7,8,9,10,11, 13a,14,14a,15,16,16a-hexadecahydrocyclopropa [e]pyrrolo[1,2-a][1,4] diazacyclopentadecine-14a-carboxylate]: the concentration for a half-maximal effect (EC50) (Hepatitis C virus, 72 h) is above 10000 nM.

The compound `COc1ccc2c(O[C@@H]3C[C@H]4C(=O)N[C@]5(C(=O)NS(=O)(=O)C6CC6)C[C@H]5/C=C\CCCCC[C@H](CC(=O)N5CCCCC5)C(=O)N4C3)cc(-c3ccccc3)cc2c1` [Compound 120, (2R,6R,14aR,16aS,Z)-N-(cyclopropylsulfonyl)-2-(6-methoxy-3-phenylnaphthalen-1-yloxy)-5,16-dioxo-6-(2-oxo-2-(piperidin-1-yl)ethyl)-1,2,3,5,6,7,8,9,10,11, 13a,14,14a,15,16,16a-hexadecahydrocyclopropa [e]pyrrolo[1,2-a][1,4] diazacyclopentadecine-14a-carboxamide] had an EC50 (Hepatitis C virus, 72 h) below 1000 nM.

`COc1ccc2c(O[C@@H]3C[C@H]4C(=O)N[C@]5(C(=O)NS(=O)(=O)C6CC6)C[C@H]5/C=C\CCCCC[C@H](CC(=O)O)C(=O)N4C3)cc(-c3ccccc3)nc2c1` [Compound 59, 2-((2R,6R,13aS, 14aR,16aS,Z)-14a-(cyclopropylsulfonyl-carbamoyl)-2-(7-methoxy-2-phenylquinolin-4-yloxy)-5,16-dioxo-1,2,3,5,6,7,8,9,10,11, 13a,14,14a,15,16,16a-hexadecahydrocyclopropa [e]pyrrolo[1,2-a][1,4]diazacyclopentadecin-6-yl)acetic acid] gave an EC50 (Hepatitis C virus, 72 h) below 1000 nM.

Turning to `COc1ccc2c(O[C@@H]3C[C@H]4C(=O)N[C@]5(C(=O)NS(=O)(=O)C6CC6)C[C@H]5/C=C\CCCCC[C@H](CC(=O)N5CCC(F)CC5)C(=O)N4C3)cc(-c3ccccc3)nc2c1` [Compound 70, (2R,6R,13aS, 14aR,16aS,Z)-N-(cyclopropylsulfonyl)-6-(2-(4-fluoropiperidin-1-yl)-2-oxoethyl)-2-(7-methoxy-2-phenylquinolin-4-yloxy)-5,16-dioxo-1,2,3,5,6,7,8,9,10,11, 13a,14,14a,15,16,16a-hexadecahydrocyclopropa [e]pyrrolo[1,2-a][1,4] diazacyclopentadecine-14a-carboxamide], the EC50 (Hepatitis C virus, 72 h) is below 1000 nM.

In turn, `COc1ccc2c(O[C@@H]3C[C@H]4C(=O)N[C@]5(C(=O)NS(=O)(=O)C6CC6)C[C@H]5/C=C\CCCCC[C@H](CC(=O)N5CCC(C(F)(F)F)CC5)C(=O)N4C3)cc(-c3ccccn3)nc2c1C` [Compound 117, (2R,6R,14aR,16aS,Z)-N-(cyclopropylsulfonyl)-2-(7-methoxy-8-methyl-2-(pyridin-2-yl)quinolin-4-yloxy)-5, 16-dioxo-6-(2-oxo-2-(4-(trifluoromethyl)piperidin-1-yl)ethyl)-1,2,3,5,6,7,8,9,10,11, 13a,14,14a,15,16,16a-hexadecahydrocyclopropa [e]pyrrolo[1,2-a][1,4] diazacyclopentadecine-14a-carboxamide] returned an EC50 (Hepatitis C virus, 72 h) above 10000 nM.

`COc1ccc2c(O[C@@H]3C[C@H]4C(=O)N[C@]5(C(=O)NS(=O)(=O)C6CC6)C[C@H]5/C=C\CCCCC[C@H](CC(=O)N5CCCC5)C(=O)N4C3)cc(-c3ccccc3)nc2c1` [Compound 55, (2R,6R,13aS, 14aR,16aS,Z)-N-(cyclopropylsulfonyl)-2-(7-methoxy-2-phenylquinolin-4-yloxy)-5,16-dioxo-6-(2-oxo-2-(pyrrolidin-1-yl)ethyl)-1,2,3,5,6,7,8,9,10,11, 13a,14,14a,15,16,16a-hexadecahydrocyclopropa [e]pyrrolo[1,2-a][1,4] diazacyclopentadecine-14a-carboxamide] returned an EC50 (Hepatitis C virus, 72 h) below 1000 nM.

`COc1ccc2c(O[C@@H]3C[C@H]4C(=O)N[C@H](C(=O)NS(=O)(=O)C5CC5)CCCCCCCCC[C@H](CC(=O)N5CCCCC5)C(=O)N4C3)cc(-c3ccccc3)nc2c1` [Compound 52, (3S,13R,17R,18aS)-N-(cyclopropylsulfonyl)-17-(7-methoxy-2-phenylquinolin-4-yloxy)-1,14-dioxo-13-(2-oxo-2-(piperidin-1-yl)ethyl) octadecahydropyrrolo [1,2-a][1,4] diazacyclohexadecine-3-carboxamide] had an EC50 of 1000 to 10000 nM.

For the setting “Hepatitis C virus, 72 h”, `COc1ccc2c(O[C@@H]3C[C@H]4C(=O)N[C@]5(C(=O)NS(=O)(=O)C6CC6)C[C@H]5/C=C\CCCCC[C@H](CC(=O)N5CCOCC5)C(=O)N4C3)cc(-c3ccccc3)nc2c1` [Compound 60, (2R,6R,13aS, 14aR,16aS,Z)-N-(cyclopropylsulfonyl)-2-(7-methoxy-2-phenylquinolin-4-yloxy)-6-(2-morpholino-2-oxoethyl)-5,16-dioxo-1,2,3,5,6,7,8,9,10,11, 13a,14,14a,15,16,16a-hexadecahydrocyclopropa [e]pyrrolo[1,2-a][1,4] diazacyclopentadecine-14a-carboxamide] yielded an EC50 below 1000 nM.

`COc1ccc2c(O[C@@H]3C[C@H]4C(=O)N[C@@](C)(C(=O)NS(=O)(=O)C5CC5)C/C=C\CCCCC[C@H](CC(=O)N5CCCCC5)C(=O)N4C3)cc(-c3ccccc3)nc2c1` [Compound 65, (3R,12R,16R,17aS,Z)-N-(cyclopropylsulfonyl)-16-(7-methoxy-2-phenylquinolin-4-yloxy)-3-methyl-1,13-dioxo-12-(2-oxo-2-(piperidin-1-yl)ethyl)-2,3,4,7,8,9,10, 11,12,13,15,16,17,17a-tetradecahydro-1H-pyrrolo[1,2-a][1,4] diazacyclopentadecine-3-carboxamide]: the EC50 (Hepatitis C virus, 72 h) is 1000 to 10000 nM.

For the compound `COc1ccc2c(O[C@@H]3C[C@H]4C(=O)N[C@]5(C(=O)O)C[C@H]5/C=C\CCCCC[C@H](CC(=O)N5CCCCC5)C(=O)N4C3)cc(-c3ccccc3)nc2c1` [Compound 44, (2R,6R,13aS,14aR, 16aS,Z)-2-(7-methoxy-2-phenylquinolin-4-yloxy)-5,16-dioxo-6-(2-oxo-2-(piperidin-1-yl)ethyl)-1,2,3,5,6,7,8,9,10,11, 13a,14,14a,15,16,16a-hexadecahydrocyclopropa [e]pyrrolo[1,2-a][1,4] diazacyclopentadecine-14a-carboxylic acid], the EC50 (Hepatitis C virus, 72 h) was above 10000 nM.

Values taken from patent US8697641B2, “4-amino-4-oxobutanoyl peptide cyclic analogues, inhibitors of viral replication” (Achillion Pharmaceuticals, Inc., priority 2008, dated 2014).
